Test results taken from US20250223306A1, “TEAD INHIBITORS AND METHODS OF USE” (Sporos BioDiscovery, Inc., priority 2022, published 2025).

Tests used:
Type in all cases: cell-based
[1] = tested on: BHY cells; assay: BHY proliferation and cell viability assay (CTG); details: BHY cell line
Experimental: BHY cells were trypsinised, counted and plated at the specified cell density in 200 μl of growth media in 96 well flat bottom tissue culture treated plates. The plated cells were incubated overnight at 37° C., 5% CO2 before being treated with compounds in triplicate for each assay point. 50 μl of the serially diluted compound was added to each well giving a final DMSO concentration of 0.5% per well and a total volume of 250 μl per well. The treated cells were incubated for 144 hours (6 days) at 37° C., 5% CO2. Following compound treatment, the remaining viable cells were detected using the Promega CellTiter-Glo 2.0 assay as follows: 150 μl of media was removed from each of the wells to be assayed and 100 μl of room temperature CellTiter-Glo 2.0 reagent was added. The plate was placed on an orbital shaker at 500 rpm at room temperature for 2 minutes, and then incubated without shaking for a further 10 minutes at room temperature. 150 μl of cell lysate was removed from each well and dispensed into a single well of a white opaque 96 well plate. Luminescence at 545 nm was read using a BMG CLARIOstar plate reader. The luminescent signal was directly proportional to number of viable cells, the percent of viable cells relative to the DMSO control was then calculated for each assay point. Percent viability relative to DMSO control was plotted against compound concentration and a curve fitted with non-linear regression in GraphPad
Prism software. EC50 and IC50 values are calculated using GraphPad Prism software as follows: For EC50 values, a non-constrained four-parameter logistic curve fit was used (Sigmoidal, 4PL, X is concentration). For Absolute IC50 values the baseline was constrained to Y=0 (Absolute IC50, X is concentration). Area Under the Curve (AUC): Prism computes area-under-the-curve by the trapezoidal method. The analysis sees a fitted curve as simply a series of connected XY points. Prism simply computes the area under the “curve” defined by connecting the points by straight lines. The units of the AUC are the units of the Y axis times units of the X axis.

[2] = tested on: LOU-NH91 cells; assay: LOU-NH91 proliferation and cell viability assay (CTG); details: LOU-NH91 cell line, 216 hours
Experimental: LOU-NH91 cells were trypsinised, counted and plated at the specified cell density in 200 μl of growth media in 96 well flat bottom tissue culture treated plates. The plated cells were incubated overnight at 37° C., 5% CO2 before being treated with compounds in triplicate for each assay point. 50 μl of the serially diluted compound was added to each well giving a final DMSO concentration of 0.5% per well and a total volume of 250 μl per well. The treated cells were incubated for 216 hours (9 days) at 37° C., 5% CO2. Following compound treatment, the remaining viable cells were detected using the Promega CellTiter-Glo 2.0 assay as follows: 150 μl of media was removed from each of the wells to be assayed and 100 μl of room temperature CellTiter-Glo 2.0 reagent was added. The plate was placed on an orbital shaker at 500 rpm at room temperature for 2 minutes, and then incubated without shaking for a further 10 minutes at room temperature. 150 μl of cell lysate was removed from each well and dispensed into a single well of a white opaque 96 well plate. Luminescence at 545 nm was read using a BMG CLARIOstar plate reader. The luminescent signal was directly proportional to number of viable cells, the percent of viable cells relative to the DMSO control was then calculated for each assay point. Percent viability relative to DMSO control was plotted against compound concentration and a curve fitted with non-linear regression in GraphPad Prism software. EC50 and IC50 values were calculated using GraphPad Prism software as follows: For EC50 values a non-constrained four-parameter logistic curve fit was used (Sigmoidal, 4PL, X is concentration). For Absolute IC50 values the baseline was constrained to Y=0 (Absolute IC50, X is concentration). Area Under the Curve (AUC): Prism computes area-under-the-curve by the trapezoidal method. The analysis sees a fitted curve as simply a series of connected XY points. Prism simply computes the area under the “curve” defined by connecting the points by straight lines. The units of the AUC are the units of the Y axis times units of the X axis.

[3] = tested on: MSTO-211H cells; assay: MSTO-211H proliferation and cell viability assay (CTG); details: Homo sapiens, MSTO-211H cell line, 144 hours
Experimental: MSTO-211H cells were trypsinised, counted and plated at the specified cell density in 200 μl of growth media in 96 well flat bottom tissue culture treated plates. The plated cells were incubated overnight at 37° C., 5% CO2 before being treated with compounds in triplicate for each assay point. 50 μl of the serially diluted compound was added to each well giving a final DMSO concentration of 0.5% per well and a total volume of 250 μl per well. The treated cells were incubated for 144 hours (6 days) at 37° C., 5% CO2. Following compound treatment, the remaining viable cells were detected using the Promega CellTiter-Glo 2.0 assay as follows: 150 μl of media was removed from each of the wells to be assayed and 100 μl of room temperature CellTiter-Glo 2.0 reagent was added. The plate was placed on an orbital shaker at 500 rpm at room temperature for 2 minutes, and then incubated without shaking for a further 10 minutes at room temperature. 150 μl of cell lysate was removed from each well and dispensed into a single well of a white opaque 96 well plate. Luminescence at 545 nm is read using a BMG CLARIOstar plate reader. The luminescent signal was directly proportional to number of viable cells, the percent of viable cells relative to the DMSO control was then calculated for each assay point. Percent viability relative to DMSO control was plotted against compound concentration and a curve fitted with non-linear regression in GraphPad Prism software. IC50 values were calculated using GraphPad Prism software as follows: For Relative IC50 values a non-constrained four-parameter logistic curve fit was used (Sigmoidal, 4PL, X is concentration). For Absolute IC50 values the baseline was constrained to Y=0 (Absolute IC50, X is concentration). Area Under the Curve (AUC): Prism computes area-under-the-curve by the trapezoidal method. The analysis sees a fitted curve as simply a series of connected XY points. Prism simply computes the area under the “curve” defined by connecting the points by straight lines. The units of the AUC are the units of the Y axis times units of the X axis.

| Structure (SMILES) | EC50 ([1]; 144 h) | EC50 [2] | EC50 [3] | EC50 ([1]; 144 hours) |
| --- | --- | --- | --- | --- |
| C[C@H](CO)NC(=O)c1cnc2c(C3=CCC(C(F)(F)F)CC3)cccc2c1 (stereo partly drawn) [Compound 7, N—((R)-1-hydroxypropan-2-yl)-8-(4-(trifluoromethyl)cyclohex-1-en-1-yl)quinoline-3-carboxamide] | < 200 nM | < 200 nM | < 200 nM |  |
| COc1cc(C2=CCC(C(F)(F)F)CC2)c2ncc(C(=O)N[C@H](C)CO)cc2c1 (stereo partly drawn) [Compound 110, N—((R)-1-hydroxypropan-2-yl)-6-methoxy-8-(4-(trifluoromethyl)cyclohex-1-en-1-yl)quinoline-3-carboxamide] |  |  | < 200 nM |  |
| C[C@H](NC(=O)c1cnc2c(C3=CC[C@@H](C(F)(F)F)CC3)cccc2c1)c1ncco1 (single isomer, unassigned) [Compound 20, N-(1-(oxazol-2-yl)ethyl)-8-(4-(trifluoromethyl)cyclohex-1-en-1-yl)quinoline-3-carboxamide] | < 200 nM | < 200 nM |  |  |
| C[C@@H](NC(=O)c1cnc2c(C3=CCC4(CC3)CC4)cccc2c1)c1ncco1 [Compound 166, (R)—N-(1-(oxazol-2-yl)ethyl)-8-(spiro[2.5]oct-5-en-6-yl)quinoline-3-carboxamide] |  |  | < 200 nM |  |
| C=CC(=O)Nc1ccc(C)c(Oc2ccc(Cl)cc2)c1 [Compound 1-3, reference compound] | < 200 nM | < 200 nM | < 200 nM |  |
| O=C(NCc1ccn[nH]1)c1cnc2c(C3=CCC(C(F)(F)F)CC3)cccc2c1 (stereo not drawn) [Compound 47, N-((1H-pyrazol-5-yl)methyl)-8-(4-(trifluoromethyl)cyclohex-1-en-1-yl)quinoline-3-carboxamide] | < 200 nM | < 200 nM | < 200 nM |  |
| O=C(NCc1ncco1)c1cnc2c(C3=CCC(C(F)(F)F)CC3)cccc2c1 (stereo not drawn) [Compound 11, N-(oxazol-2-ylmethyl)-8-(4-(trifluoromethyl)cyclohex-1-en-1-yl)quinoline-3-carboxamide] |  |  | < 200 nM |  |
| C[C@H](NC(=O)c1cnc2c(C3=CC[C@@H](C(F)(F)F)CC3)cccc2c1)c1ncco1 (single isomer, unassigned) [Compound 19, N-(1-(oxazol-2-yl)ethyl)-8-(4-(trifluoromethyl)cyclohex-1-en-1-yl)quinoline-3-carboxamide] |  | < 200 nM | < 200 nM | < 200 nM |
| COC[C@H](CO)NC(=O)c1cnc2c(C3=CCC(C(F)(F)F)CC3)cccc2c1 (stereo partly drawn) [Compound 62, N—((S)-1-hydroxy-3-methoxypropan-2-yl)-8-(4-(trifluoromethyl)cyclohex-1-en-1-yl)quinoline-3-carboxamide] | < 200 nM | < 200 nM | < 200 nM |  |
| FC(F)(F)c1ccc(CN2CCC(C3CC(Br)=NO3)CC2)cc1 (stereo not drawn) [Compound 1-2, reference compound] | > 1000 nM | < 200 nM | < 200 nM |  |
| C[C@H](CO)NC(=O)c1cnc2c(C3=CCC4(CC3)CC(F)(F)C4)cccc2c1 [Compound 165, (R)-8-(2,2-difluorospiro[3.5]non-6-en-7-yl)-N-(1-hydroxypropan-2-yl)quinoline-3-carboxamide] |  |  | < 200 nM |  |
| COc1cc(C2=CCC(C(F)(F)F)CC2)c2ncc(C(=O)N[C@H](C)c3ncco3)cc2c1 (stereo partly drawn) [Compound 109, 6-methoxy-N—((R)-1-(oxazol-2-yl)ethyl)-8-(4-(trifluoromethyl)cyclohex-1-en-1-yl)quinoline-3-carboxamide] | < 200 nM | < 200 nM | < 200 nM |  |
